Data published in patent US9149043B2, “Compositions and method for preventing and treating fire blight” (priority 2009, dated 2015).
Where “and” joins values, the source holds several entries; their conditions need not be identical. Identical values can stand only once.

Tested on: Erwinia amylovara
Experiment: Measuring the efficiency against fire blight on inoculated apple blossoms
Type: in vivo
Settings: 0.06 % by weight in water (positive control); apple blossoms sprayed 1 h after inoculation, 6 days, vs water control
Description: For measuring the efficiency of the aqueous compositions, 24 blossoms of the apple varieties Braeburn, Jona Gold and Gala are placed in sugar solution and inoculated with a suspension of Erwinia amylovara at 10^6 bacterial cells. One hour after inoculation, the blossoms are sprayed, respectively, with the composition to be tested or with water, serving as a negative control, until completely wetted. These blossoms are incubated for 6 days at 20 to 23° C. and at a relative humidity of 100%.
The efficiency specifies the decrease of infested blossoms utilizing the composition to be tested in comparison to blossoms, which were treated with water only. All tests are conducted three to six times, and from the measured data the empirical mean of the efficiency, as well as the empirical standard deviation σ are calculated, whereby the standard deviation σ represents […] of the data from the arithmetic mean of the efficiency.

Which mean of efficiency does the source give for `[H]/N=C(/N)N[C@H]1[C@H](O)[C@@H](O)[C@H](O[C@@H]2O[C@@H](C)[C@](O)(C=O)[C@H]2O[C@@H]2O[C@@H](CO)[C@H](O)[C@@H](O)[C@@H]2NC)[C@@H](N/C(N)=N\[H])[C@@H]1O` [streptomycin] here?
The mean of efficiency was 74% and 70% and 75%.
